The structures appear in SMILES notation. pIC50: −log10 of the molar value. Counter-ions that a name gives are not always drawn.

T1 sequence (P41594 21-1212): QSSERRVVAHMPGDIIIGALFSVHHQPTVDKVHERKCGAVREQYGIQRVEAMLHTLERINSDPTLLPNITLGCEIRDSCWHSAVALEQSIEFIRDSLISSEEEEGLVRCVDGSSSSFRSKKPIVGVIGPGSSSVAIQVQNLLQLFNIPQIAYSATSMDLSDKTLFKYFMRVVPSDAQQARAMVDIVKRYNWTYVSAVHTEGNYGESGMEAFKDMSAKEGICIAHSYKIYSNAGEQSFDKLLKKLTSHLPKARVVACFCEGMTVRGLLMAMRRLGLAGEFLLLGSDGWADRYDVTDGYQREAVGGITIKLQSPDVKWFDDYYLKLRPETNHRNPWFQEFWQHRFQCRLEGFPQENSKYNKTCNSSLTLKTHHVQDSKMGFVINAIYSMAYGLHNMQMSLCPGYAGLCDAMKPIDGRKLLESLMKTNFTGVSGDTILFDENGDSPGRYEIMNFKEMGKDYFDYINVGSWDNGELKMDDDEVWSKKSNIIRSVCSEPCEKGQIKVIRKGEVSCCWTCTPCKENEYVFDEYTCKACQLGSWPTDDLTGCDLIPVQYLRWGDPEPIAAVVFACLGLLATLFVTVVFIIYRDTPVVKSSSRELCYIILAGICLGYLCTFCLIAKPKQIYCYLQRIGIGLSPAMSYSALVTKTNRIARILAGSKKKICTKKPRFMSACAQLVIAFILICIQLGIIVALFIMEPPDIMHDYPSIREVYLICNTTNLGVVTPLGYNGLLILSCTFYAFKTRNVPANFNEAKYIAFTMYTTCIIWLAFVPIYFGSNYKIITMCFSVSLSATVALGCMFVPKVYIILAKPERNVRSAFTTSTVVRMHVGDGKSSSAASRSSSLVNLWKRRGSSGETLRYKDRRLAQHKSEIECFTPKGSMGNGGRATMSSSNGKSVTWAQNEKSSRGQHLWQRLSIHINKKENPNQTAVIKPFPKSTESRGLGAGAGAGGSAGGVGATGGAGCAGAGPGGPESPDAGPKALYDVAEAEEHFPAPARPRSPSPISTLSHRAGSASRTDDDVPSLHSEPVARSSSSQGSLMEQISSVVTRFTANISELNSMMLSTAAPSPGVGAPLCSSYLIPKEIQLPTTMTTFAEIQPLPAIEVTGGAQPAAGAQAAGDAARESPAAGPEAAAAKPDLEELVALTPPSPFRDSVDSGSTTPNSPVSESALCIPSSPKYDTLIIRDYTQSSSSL

The assay has as its target T1, human mGluR5 (Homo sapiens, UniProt P41594).
T1 construct: expressed in transfected cells
Briefly: Experiment for receptor function of mGluR5 (Ca2+-dependent fluorescence, FLIPR, CHO-K1 cells stably expressing human mGluR5). The settings on record: L-glutamic acid 10 μM, Fluo-4 fluorescence. In kind it is cell-based. How it is done:
Stable expression cells in which the human mGluR5 gene had been introduced into a Chinese hamster ovary cell (CHO-K1) were used for evaluation. The cells were suspended in a growth medium (MEM-α (D8042, available from Sigma) containing 10% inactivated FBS (Cat. No. 171012, available from CCB) and 2 mM glutamax (Cat. No. 35050, available from GIBCO)) and seeded on a black clear-bottom 96-well plate at 100,000 cells per well. One day after seeding, the medium was replaced by a medium (Hanks' balanced salt solution (HBSS buffer solution) (20 mM HEPES, 2.5 mM probencide (165-15472, available from Wako Pure Chemical Industries, Ltd.), and 10×HBSS (14065-056, available from Gibco) diluted 10 times, pH 7.4)) containing a calcium-sensitive dye Fluo-4 AM at a final concentration of […] (F312, available from Dojindo Laboratories) and Pluronic F-127 at a final concentration of 0.0145% (P-2443, available from Sigma), followed by incubation at 37° C. for one hour, thereby loading Fluo-4 AM into the cells.
Subsequently, the cells were washed twice with an HBSS buffer solution, to which was subsequently added the same buffer solution. Twenty minutes thereafter, the plate was transferred into a fluorescence screening system (FLIPR TETRA, available from Molecular Devices, LLC) and measured for a Ca^2+-dependent fluorescence change in the cells.
First of all, a fluorescence baseline was measured, and thereafter, fluorescence measurement was performed for 2 minutes while adding a test substance, an excessive amount of 6-methyl-2-(phenylethynyl)pyridine (hereinafter referred to as “MPEP”) (final concentration: 10 μM), or the medium. Thereafter, fluorescence measurement was carried out for one minute while adding L-glutamic acid (final concentration: 10 μM).
While taking a fluorescence intensity caused by L-glutamic acid as 100% and a fluorescence intensity caused by L-glutamic acid in the presence of MPEP as 0%, respectively, function inhibitory activity against human mGluR5 was evaluated from the fluorescence intensity caused by L-glutamic acid in the presence of the test substance at each concentration, and an IC50 value was estimated according to a logistic equation (SAS System).
Regarding `Cc1ncc(-c2cc(OCc3cccc(F)n3)nc3c2CCC3)cn1` [Example 39, 2-[(6-Fluoropyridin-2-yl)methoxy]-4-(2-methylpyrimidin-5-yl)-6,7-dihydro-5H-cyclopenta[b]pyridine], the pIC50 is 6.91.
Turning to `N#Cc1ncc(-c2cc(OCc3ccccn3)nc3c2CCC3)cn1` [Example 37, 5-[2-(Pyridin-2-ylmethoxy)-6,7-dihydro-5H-cyclopenta[b]pyridin-4-yl]pyrimidine-2-carbonitrile hydrochloride], the negative-log IC50 (pIC50) is 7.10. This pIC50 and that of the molecule before are within 0.2 log units of each other.
For `Fc1cccc(COc2cc(-c3cncnc3)c3c(n2)CCCC3)n1` [Example 144, 2-[(6-Fluoropyridin-2-yl)methoxy]-4-(pyrimidin-5-yl)-5,6,7,8-tetrahydroquinoline] the value was 7.71; for `Clc1ccc(COc2cc(-c3cncnc3)c3c(n2)CCC3)s1` [Example 35, 2-[(5-Chlorothiophen-2-yl)methoxy]-4-(pyrimidin-5-yl)-6,7-dihydro-5H-cyclopenta[b]pyridine], 7.24; for `N#Cc1cccc(COc2cc(-c3cnc(N)nc3)c3c(n2)CCC3)c1` [Example 265, 3-({[4-(2-Aminopyrimidin-5-yl)-6,7-dihydro-5H-cyclopenta[b]pyridin-2-yl]oxy}methyl)benzonitrile], 7.33.
`Cc1ccc(COc2cc(-c3cccnc3)c3c(n2)CCCC3)nc1` [Example 84, 2-[(5-Methylpyridin-2-yl)methoxy]-4-(pyridin-3-yl)-5,6,7,8-tetrahydroquinoline]: the pIC50 is 6.95.
Next, `Cc1ncc(-c2cc(OCc3ccc(F)cn3)nc3c2CCC3)cn1` [Example 40, 2-[(5-Fluoropyridin-2-yl)methoxy]-4-(2-methylpyrimidin-5-yl)-6,7-dihydro-5H-cyclopenta[b]pyridine hydrochloride]: 7.11; `Nc1cnc(-c2cc(OCc3ccccn3)nc3c2CCCC3)cn1` [Example 207, 5-[2-(Pyridin-2-ylmethoxy)-5,6,7,8-tetrahydroquinolin-4-yl]pyrazin-2-amine]: 6.46.
For `N#Cc1ccc(COc2cc(-c3cncc(CO)n3)c3c(n2)CCCC3)nc1` [Example 288, 6-[({4-[6-(Hydroxymethyl)pyrazin-2-yl]-5,6,7,8-tetrahydroquinolin-2-yl}oxy)methyl]pyridine-3-carbonitrile] the value was 6.92; for `C=Cc1cccc(COc2cc(-c3cncnc3)c3c(n2)CCCC3)n1` [Example 161, 2-[(6-Ethenylpyridin-2-yl)methoxy]-4-(pyrimidin-5-yl)-5,6,7,8-tetrahydroquinoline], 6.44.
For `Fc1ccc(COc2cc(-c3cncnc3)c3c(n2)CCCC3)cc1` [Example 280, 2-[(4-Fluorobenzyl)oxy]-4-(pyrimidin-5-yl)-5,6,7,8-tetrahydroquinoline] the value was 7.04.
As to `CCc1cncc(-c2cc(OCc3ccccn3)nc3c2CCCC3)n1` [Example 202, 4-(6-Ethylpyrazin-2-yl)-2-(pyridin-2-ylmethoxy)-5,6,7,8-tetrahydroquinoline], the pIC50 is 7.37.
For `N#Cc1ccc(COc2cc(-c3cncnc3)c3c(n2)CCCC3)cc1` [Example 278, 4-({[4-(Pyrimidin-5-yl)-5,6,7,8-tetrahydroquinolin-2-yl]oxy}methyl)benzonitrile] the value was 7.06.
Molecule `CCC1CCc2c(-c3cncnc3)cc(OCc3ccccn3)nc21` (stereo not shown) [Example 240, 7-Ethyl-2-(pyridin-2-ylmethoxy)-4-(pyrimidin-5-yl)-6,7-dihydro-5H-cyclopenta[b]pyridine] showed a pIC50 of 7.62. Compared with the last molecule, the pIC50 is 0.56 log units higher.
For `OCc1cncc(-c2cc(OCc3ccc(F)cc3)nc3c2CCC3)c1` [Example 248, (5-{2-[(4-Fluorobenzyl)oxy]-6,7-dihydro-5H-cyclopenta[b]pyridin-4-yl}pyridin-3-yl)methanol] the value was 7.02; for `Nc1ncc(-c2cc(OCc3cccc(F)c3)nc3c2CCC3)cn1` [Example 263, 5-{2-[(3-Fluorobenzyl)oxy]-6,7-dihydro-5H-cyclopenta[b]pyridin-4-yl}pyrimidin-2-amine], 6.95.

In general, pIC50 refers to the IC50 on a negative log10 scale, so that one unit is a factor of ten.
